Assay results reported in patent publication US20250154525A1, “PLANT VIRUS MOVEMENT PROTEINS AND METHODS OF USING SAME” (Molecular Transfer, Inc., priority 2016, published 2025).

Legend:
HeLa Cells [1] = experiment: GFP plasmid transfection with DOTMA/DOPE plus surface ligand peptide, fluorescent plate reader (Example 1); format: cell-based; settings: DOTMA/DOPE + peptide linked to R12 or K16; EF1Alpha eGFP plasmid; 42 hours
HuVec Cells = experiment: as above; format: cell-based; settings: DOTMA/DOPE + peptide linked to R12 or K16; EF1Alpha eGFP plasmid; 42 hours
Summary of the method: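 HuVEC cells in 96 well plates at 70% confluence were transfected with EF1Alpha eGFP plasmid using a 1:1 molar DOTMA/DOPE lipid mixed with a surface ligand peptide carrying a covalently attached nucleic acid binding moiety. Complexes formed for 10 minutes, 0.01 mL went to each well, cells were incubated 42 hours at 37° C., and fluorescence was read on a plate reader.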

Human Fibroblast Cells = experiment: as above; format: cell-based; settings: DOTMA/DOPE + peptide linked to R12 or K16; EF1Alpha eGFP plasmid; 42 hours
Summary of the method: (§1)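 DOTMA/DOPE (1:1 molar) plus peptide bearing a poly-Arg or poly-Lys tag was complexed 10 min with EF1alpha eGFP plasmid in OptiMEM, then added to 70%-confluent cells (0.01 mL fibroblasts; 0.02 mL C2C12, Jurkat). After 42 h at 37 °C, GFP was read by plate reader and compared with DOTMA without ligand.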

Jurkat Cells = experiment: as above; format: cell-based; settings: DOTMA/DOPE + peptide linked to R12 or K16; EF1Alpha eGFP plasmid; 42 hours
Summary of the method: as §1

NL-1 iPS Cells = experiment: as above; format: cell-based; settings: DOTMA/DOPE + peptide linked to R12 or K16; EF1Alpha eGFP plasmid; 42 hours
C2C12 Cells = experiment: as above; format: cell-based, mouse; settings: DOTMA/DOPE + peptide linked to R12 or K16; EF1Alpha eGFP plasmid; 42 hours
Summary of the method: as §1

HeLa Cells [2] = experiment: GFP transfection with DOTMA/SEQ ID NO: 72 (fusogenic peptide)/peptide compared with Lipofectamine 2000; format: cell-based
Summary of the method: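 DOTMA/DOPE (1:1 molar) lipid mixed with polyarginine- or polylysine-tagged cell-surface-ligand peptide, complexed 10 min with EF1alpha eGFP plasmid at 10 μg/mL in OptiMEM, fusogenic peptide at 0.1 mg/mL final; HeLa cells ~70% confluent given 0.01 mL complex. GFP read by fluorescence plate reader and microscopy (% cells transfected) after 42 h at 37° C; Lipofectamine 2000 as comparator.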

some examined cell types = experiment: Summary of Example 1: transfection expression and % cells transfected over the no peptide control; format: cell-based; settings: on some examined cell types
Summary of the method: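 Cells at 70% confluence received DNA complexes of EF1Alpha eGFP plasmid with DOTMA/DOPE (1:1) plus oligo-Arg- or oligo-Lys-tagged peptide ligands, formed 10 min at room temperature. After 42 h at 37 °C, 5% CO2, GFP read by plate reader and % transfected cells judged microscopically, relative to lipid without peptide.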

[3] = 0.1 μL of DOTMA/SEQ ID NO: 72/Peptide in well of a 96 well plate
[4] = 0.2 μL of DOTMA/SEQ ID NO: 72/Peptide in well of a 96 well plate
[5] = 0.3 μL of DOTMA/SEQ ID NO: 72/Peptide in well of a 96 well plate
[6] = 0.4 μL of DOTMA/SEQ ID NO: 72/Peptide in well of a 96 well plate

Substance | Relative Fluorescence of Transfection of HeLa Cells (RF) (HeLa Cells [1]) | Relative Fluorescence of Transfection of HuVec Cells (RF) (HuVec Cells) | Relative Fluorescence of Transfection of Human Fibroblast Cells (RF) (Human Fibroblast Cells) | Relative Fluorescence of Transfection of Jurkat Cells (RF) (Jurkat Cells) | Relative Fluorescence of Transfection of NL-1 iPS Cells (RF) (NL-1 iPS Cells) | Relative Fluorescence of Transfection of C2C12 Cells (RF) (C2C12 Cells) | Relative Fluorescence DOTMA/SEQ ID NO: 72/Peptide, HeLa Cells (RF) (HeLa Cells [2]; [3]) | Relative Fluorescence DOTMA/SEQ ID NO: 72/Peptide, HeLa Cells (RF) (HeLa Cells [2]; [4]) | Relative Fluorescence DOTMA/SEQ ID NO: 72/Peptide, HeLa Cells (RF) (HeLa Cells [2]; [5]) | Relative Fluorescence DOTMA/SEQ ID NO: 72/Peptide, HeLa Cells (RF) (HeLa Cells [2]; [6]) | transfection expression and % cells transfected over the no peptide control (some examined cell types)
355 (FRHRNRKGY) [compound 355] | 32628 | 14810 | 6821 | 8132 | 7910 | 1900 | 18362 | 27990 | 22367 | 18289 | increased transfection expression and the % cells transfected
375 (LAGSCLPVFSTL) [compound 375] | 41076 | 5542 | 7305 | 4272 | 5196 | 5633 | 22457 | 30891 | 34887 | 29024 | increased transfection expression and the % cells transfected
379 (TAGSCLRKF) [compound 379] | 27424 | 14573 | 8520 | 7711 | 6894 | 3189 | 50018 | 47049 | 39036 | 26448 | increased transfection expression and the % cells transfected
369 (TAIPSCPEGTVPLYS) [compound 369] | 14444 | 6536 | 7590 | 11085 | 13124 | 3322 | 8737 | 16706 | 14880 | 12645 | increased transfection expression and the % cells transfected
